Source: PMC7155171, “Probing the Open Global Health Chemical Diversity Library for Multistage-Active Starting Points for Next-Generation Antimalarials” (ACS Infectious Diseases, 2020)
Where two headings read alike, the source gives them in different places.

Assays:
[1] = system: P. falciparum Dd2 (PfLuc) line expressing firefly luciferase, asexual blood stage; experiment: microbe, parasite or virus in culture; type: cell-based, Plasmodium falciparum; conditions: Plasmodium falciparum
[2] = system: P. falciparum Dd2; experiment: SYBR green I asexual blood stage proliferation assay (96 h); type: cell-based, Plasmodium falciparum; conditions: Plasmodium falciparum, DD2, 11-pt dose response, 96hr
[3] = DD2, read-out: CDD P. falciparum Luciferase ABS 11-pt Reconfirmation Dose Response (48hr): IC50 (μM), 11-pt dose response, 48hr
[4] = DD2, 8-pt dose response, 96hr, read-out: CDD P. falciparum Luciferase ABS 8-pt Reconfirmation Dose Response (96hr): IC50
[5] = DD2, 8-pt dose response, 96hr, read-out: CDD P. falciparum Luciferase ABS 8-pt Reconfirmation Dose Response (96hr): Maximum inhibition (%)
[6] = DD2, 11-pt dose response, 48hr, read-out: CDD P. falciparum Luciferase ABS 11-pt Reconfirmation Dose Response (48hr): Maximum inhibition (%)
[7] = DD2, 11-pt dose response, 96hr, read-out: CDD P. falciparum Luciferase ABS 11-pt Reconfirmation Dose Response (96hr): IC50
[8] = DD2, 11-pt dose response, 96hr, read-out: CDD P. falciparum Luciferase ABS 11-pt Reconfirmation Dose Response (96hr): Maximum inhibition (%)
[9] = Sybr Green I, read-out: CDD P. falciparum Sybr Green I ABS 11-pt Reconfirmation Dose Response (96hr): IC50
[10] = Sybr Green I, read-out: CDD P. falciparum Sybr Green I ABS 11-pt Reconfirmation Dose Response (96hr): Maximum inhibition (%)
[11] = DD2, read-out: P. falciparum Luciferase ABS 11-pt Reconfirmation Dose Response (48hr): IC50, 11-pt dose response, 48hr
[12] = DD2, 8-pt dose response, 96hr, read-out: P. falciparum Luciferase ABS 8-pt Reconfirmation Dose Response (96hr): IC50
[13] = DD2, 8-pt dose response, 96hr, read-out: P. falciparum Luciferase ABS 8-pt Reconfirmation Dose Response (96hr): Maximum inhibition (%)
[14] = DD2, 11-pt dose response, 48hr, read-out: P. falciparum Luciferase ABS 11-pt Reconfirmation Dose Response (48hr): Maximum inhibition (%)
[15] = DD2, 11-pt dose response, 96hr, read-out: P. falciparum Luciferase ABS 11-pt Reconfirmation Dose Response (96hr): IC50
[16] = DD2, 11-pt dose response, 96hr, read-out: P. falciparum Luciferase ABS 11-pt Reconfirmation Dose Response (96hr): Maximum inhibition (%)
[17] = read-out: P. falciparum Sybr Green I ABS 11-pt Reconfirmation Dose Response (96hr): IC50
[18] = read-out: P. falciparum Sybr Green I ABS 11-pt Reconfirmation Dose Response (96hr): Maximum inhibition (%)

Row | Structure (SMILES) | IC50 [1, 3] [µM] | IC50 [1, 4] [µM] | Emax [1, 5] [%] | Emax [1, 6] [%] | IC50 [1, 7] [µM] | Emax [1, 8] [%] | IC50 [2, 9] [µM] | Emax [2, 10] [%] | IC50 [1, 11] [µM] | IC50 [1, 12] [µM] | Emax [1, 13] [%] | Emax [1, 14] [%] | IC50 [1, 15] [µM] | Emax [1, 16] [%] | IC50 [2, 17] [µM] | Emax [2, 18] [%]
1 | Cc1ccc(CNCc2cccc3cccnc23)c(OC2CCOC2)c1 (centres unmarked) [DDD01075119] | 3.77 | 0.57 | 83.2 | 87.5 | 1.44 | 98.4 | > 4.16 | 64.7 |  |  |  |  |  |  |  | 
2 | CC(=O)N(c1ccc(F)cc1)c1nc(CN2CCCC2C(C)C)cs1 (centres unmarked) [DDD01075305] | 6.08 | 0.65 | 84.5 | 57.5 | 2.69 | 92.1 | > 4.16 | 62.8 |  |  |  |  |  |  |  | 
3 | COc1ccccc1C1(CNCc2cccc(O)c2)CCOCC1 [DDD01075721] | 10.3 | 0.85 | 85.5 | 67.7 | 2.2 | 90.3 | > 4.16 | 68.7 |  |  |  |  |  |  |  | 
4 | Cc1ccccc1CNCC(O)c1ccc(OC(C)C)cc1 (centres unmarked) [DDD01076008] | 3.39 | 0.89 |  | 93.9 | 1.47 | 99.7 | 3.77 |  |  |  |  |  |  |  |  | 
5 | Cc1cc(N2CCC(NC(C)Cc3ccsc3)CC2)nc(C)n1 (centres unmarked) [DDD01076128] |  |  |  |  |  |  |  |  | 2.25 | 1.19 | 89.6 | 81.4 | 1.09 | 96.6 | 7.78 | 72.7
6 | COCC(O)CN(C)c1ccnc2cc(Br)ccc12 (centres unmarked) [DDD01076306] | 1.81 | 0.99 |  | 97.7 | 1.51 | 99.9 | 2.43 | 95.6 |  |  |  |  |  |  |  | 
7 | Cc1cc(NC(=O)NC2CCN(C(C)C)CC2)c2ncccc2c1 [DDD01076635] |  |  |  |  |  |  |  |  | > 12.5 | 2.21 |  | 47.1 | 5.47 | 86.3 | 5.3 | 53.2
8 | CN1CCN(c2ccccc2NC(=O)NCCc2ccccc2)CC1 [DDD01076697] |  |  |  |  |  |  |  |  | > 12.5 | 1.14 | 82.8 | 65.5 | > 1.39 | 89.4 | > 12.5 | 52.5
9 | Brc1cccc(C2(CNCc3cc[nH]c3)CCOCC2)c1 [DDD01076928] | 1.56 | 0.82 | 85.7 | 86.3 | 0.694 | 99.3 | 5.62 |  |  |  |  |  |  |  |  | 
10 | Brc1ccc(C2(CNCc3cc[nH]c3)CCOCC2)cc1 [DDD01076992] | 0.715 | 0.62 | 82.1 | 95.6 | 0.407 | 99.6 | 3.08 | 54 |  |  |  |  |  |  |  | 
11 | COCCC1(CNC(=O)Nc2ccnc(C)c2)CCCC1 [DDD01077091] | > 12.5 | 1.04 | 79.6 | 48.9 | > 1.39 | 82 | > 12.5 | 47.9 |  |  |  |  |  |  |  | 
12 | CN1CCN(S(=O)(=O)c2ccc(Cl)c(Cl)c2)c2cnccc21 [DDD01077309] | 6.77 | 0.57 | 92.2 | 78.7 | 1.46 | 95.5 | 5.69 | 82.8 |  |  |  |  |  |  |  | 
13 | CC(C)C(CNCc1cccc2c1OCO2)N1CCOCC1 (centres unmarked) [DDD01077478] | > 12.5 | 0.56 | 86.4 | 52.1 | 2.57 | 85.2 | 1.89 | 62.1 |  |  |  |  |  |  |  | 
14 | Cc1n[nH]cc1CNC1(c2ccc(F)cc2)CCCC1 [DDD01077733] | > 12.5 | 0.59 | 86.6 | 59 | 2.1 | 87 | > 1.39 | 59 |  |  |  |  |  |  |  | 
15 | CC(NCCN1CCC(N(C)C)CC1)c1ccc(Cl)s1 (centres unmarked) [DDD01077862] | 4.33 | 0.92 | 87.7 | 83.2 | 1.35 | 97.3 | 2.87 | 89 |  |  |  |  |  |  |  | 
16 | NC(=O)CN1CCC(Nc2ccnc3ccc(Cl)cc23)CC1 [DDD01078433] | 1.98 | 0.96 |  | 99.5 | 1.05 | 100 | 1.02 | 98.2 |  |  |  |  |  |  |  | 
